The results in this text go back to patent US11679107B2 (Eisai R&D Management Co., Ltd., priority 2018, dated 2023).

One may read the IC50 as the concentration at which inhibition is half-maximal. What is called GI50 is the concentration giving 50% growth inhibition.

Experiment [1] deals with Ad2 variant pre-mRNAs spliced in HeLa S3 nuclear extracts. Nature of the experiment: In vitro splicing assay (IVS), RT-qPCR of spliced product. To be noted: for IC50: geometric mean; for Ratio Ad2.1/2.2: ratio of IVS IC50 Ad2.1 to Ad2.2. In kind it is biochemical. The method, boiled down:
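Ad2 variant pre-mRNA (2 ng) with FTZΔi control RNA in HeLa S3 nuclear extract (8 μg) was pre-incubated with compound or DMSO for 15 min at 30 °C. Splicing ran 90 min at 30 °C after adding 0.5 mM ATP, creatine phosphate and MgCl2. Spliced product was quantified by TaqMan RT-qPCR, normalized to DMSO, and curve-fitted.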
On the technique in general: Quantitative PCR measures a nucleic acid by following its amplification.

Experiment [2] concerns the target T1, SF3b complexes (Homo sapiens, UniProt O75533+Q7RTV0).
T1 construct: endogenous in cells; host or cells: Nuclear extracts; A HeLa S3 extract preparation is described for the in vitro splicing assay
The experiment can be described thus: Scintillation proximity assay (SPA) with [3H]-labelled pladienolide probe. It counts as binding. The conditions noted are these: SF3B1 (WT); geometric mean; read-out: SPA-ATS GMean IC50 (nM) SF3B1 (WT). Summed up:
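SF3b complexes captured from nuclear extracts on anti-SF3B1 antibody SPA beads; test compounds pre-incubated 30 min before 2.5 nM [3H]-pladienolide probe added, then 30 min incubation. Bound probe read by scintillation; values from non-linear regression of concentration–response curves.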

In experiment [3] the test system is Panc 05.04 cells (SF3b K700E mutant). Nature of the experiment: Cell proliferation and viability, CellTiter-Glo, 72 hours. In kind it is cell-based. The conditions noted are these: PANC0504.1; for CTGlo-ATS Mean MinResponse % 72 h PANC0504.1: -100% = cidal, 0% = static, 100% = uninhibited growth; for GI50: geometric mean. The method, boiled down:
(§1)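 Cells grown in RPMI-1640 with 10% FBS (Panc 05.04 with added insulin, 15% FBS total) were exposed to an 11-point half-log dilution, typically 10 μM–100 pM, at 0.1% DMSO for 72 h at 37 °C. ATP content was read by CellTiter-Glo luminescence. Percent inhibition was set against a time-zero plate and DMSO vehicle wells, on a −100% (cidal) to 100% (uninhibited growth) scale.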
(In general: Cellular ATP, detected with luciferase, serves as a proxy for viable cell number.)

The test system of experiment [4] is NCI-H1568 cells (high MCL1). The experiment is described as above. It counts as cell-based. The conditions noted are these: NCIH1568.1; for CTGlo-ATS Mean MinResponse % 72 h NCIH1568.1: -100% = cidal, 0% = static, 100% = uninhibited growth; for GI50: geometric mean. Summed up:
as §1

Where [5] appears, read: Ad2.1 pre-mRNA substrate, read-out: qPCR-IVS-ATS GMean IC50 (nM) Ad2.1.
[6] abbreviates: Ad2.2 pre-mRNA substrate, read-out: qPCR-IVS-ATS GMean IC50 (nM) Ad2.2.
[7] abbreviates: Panc 05.04, read-out: CTGlo-ATS GMean GI50 (nM) 72 h PANC0504.1, 72 h.
[8] abbreviates: NCI-H1568, read-out: CTGlo-ATS GMean GI50 (nM) 72 h NCIH1568.1, 72 h.
Where [9] appears, read: Panc 05.04, 72 h, read-out: CTGlo-ATS GMean GI50 (nM) 72 h PANC0504.1, 72 h.
[10] abbreviates: NCI-H1568, 72 h, read-out: CTGlo-ATS GMean GI50 (nM) 72 h NCIH1568.1, 72 h.

Like-named read-outs stand apart in the source and are kept apart here.

Turning to `C/C(=C\c1cccc(NS(=O)(=O)C2CC2)c1)[C@H]1OC(=O)C[C@H](O)CC[C@H](C)[C@@H](OC(=O)N2CCN(C)CC2)/C=C/[C@@H]1C` [Compound 216, [(2S,3S,4E,6R,7S,10R)-2-[(E)-1-[3-(cyclopropylsulfonylamino)phenyl]prop-1-en-2-yl]-10-hydroxy-3,7-dimethyl-12-oxo-1-oxacyclododec-4-en-6-yl] 4-methylpiperazine-1-carboxylate], the IC50 turned out to be 11100 nM in experiment [1] (setting [5]), 35.7 nM in experiment [1] (setting [6]) and 3.32 nM in experiment [2]. In addition, in experiment [1], the “Ratio Ad2.1/2.2” value is reported as 309.648. Also, in experiment [3] (72 h), the “CTGlo-ATS Mean MinResponse % 72 h PANC0504.1” value was −85.005%. Moreover, the GI50 in experiment [3] (setting [7]) came to 29 nM; in experiment [4] (setting [8]) it was 47.2 nM. For the same compound, the “CTGlo-ATS Mean MinResponse % 72 h NCIH1568.1” value in experiment [4] (72 h) is given as −32.014%.
With `C/C(=C\c1cc(F)cc(N2CC[C@H](NS(C)(=O)=O)C2)c1)[C@H]1OC(=O)C[C@H](O)CC[C@H](C)[C@@H](OC(=O)N2CCN(C)CC2)/C=C/[C@@H]1C` [Compound 217, [(2S,3S,4E,6R,7S,10R)-2-[(E)-1-[3-fluoro-5-[(3S)-3-(methanesulfonamido)pyrrolidin-1-yl]phenyl]prop-1-en-2-yl]-10-hydroxy-3,7-dimethyl-12-oxo-1-oxacyclododec-4-en-6-yl] 4-methylpiperazine-1-carboxylate], the IC50 in experiment [1] (setting [5]) is 18.4 nM; in experiment [1] (setting [6]), 16.6 nM; in experiment [2] it was 3.18 nM. The “Ratio Ad2.1/2.2” value in experiment [1] was found to be 1.107. Further, in experiment [3] (72 h), the “CTGlo-ATS Mean MinResponse % 72 h PANC0504.1” value was −91.288%. Also, the GI50 was 15 nM in experiment [3] (setting [7]) and 13.8 nM in experiment [4] (setting [8]). The “CTGlo-ATS Mean MinResponse % 72 h NCIH1568.1” value in experiment [4] (72 h) was −71.339%.
For `C/C(=C\c1cc(F)cc(N2CCN(C(=O)Cn3cccn3)CC2)c1)[C@H]1OC(=O)C[C@H](O)CC[C@H](C)[C@@H](OC(=O)N2CCNCC2)/C=C/[C@@H]1C` [Compound 235, [(2S,3S,4E,6R,7S,10R)-2-[(E)-1-[3-fluoro-5-[4-(2-pyrazol-1-ylacetyl)piperazin-1-yl]phenyl]prop-1-en-2-yl]-10-hydroxy-3,7-dimethyl-12-oxo-1-oxacyclododec-4-en-6-yl] piperazine-1-carboxylate], the values for the IC50 in experiment [1] (setting [5]), in experiment [1] (setting [6]) and in experiment [2] were 16 nM, 15.1 nM and 5.56 nM, respectively. For the same compound, the “Ratio Ad2.1/2.2” value in experiment [1] is recorded as 1.057. Further, in experiment [3] (72 h), the “CTGlo-ATS Mean MinResponse % 72 h PANC0504.1” value was −84.459%. The GI50 in experiment [3] (setting [9]) was 1.94 nM; in experiment [4] (setting [10]), 2.35 nM. Also, the “CTGlo-ATS Mean MinResponse % 72 h NCIH1568.1” value in experiment [4] (72 h) is given as −84.925%.
For the compound `C/C(=C\c1cc(F)cc(N2CCOCC2)c1)[C@H]1OC(=O)C[C@H](O)CC[C@H](C)[C@@H](OC(=O)NCCCN2CCOCC2)/C=C/[C@@H]1C` [Compound 241, [(2S,3S,4E,6R,7S,10R)-2-[(E)-1-(3-fluoro-5-morpholin-4-ylphenyl)prop-1-en-2-yl]-10-hydroxy-3,7-dimethyl-12-oxo-1-oxacyclododec-4-en-6-yl] N-(3-morpholin-4-ylpropyl)carbamate], the values for the IC50 in experiment [1] (setting [5]), in experiment [1] (setting [6]) and in experiment [2] were above 25000 nM, 130 nM and 20.5 nM, respectively. The “Ratio Ad2.1/2.2” value in experiment [1] came out at 191.917. In experiment [3] (72 h), the “CTGlo-ATS Mean MinResponse % 72 h PANC0504.1” value is −88.873%. In addition, the results for the GI50 in experiment [3] (setting [9]) and in experiment [4] (setting [10]) were 120 nM and 225 nM, respectively. The “CTGlo-ATS Mean MinResponse % 72 h NCIH1568.1” value in experiment [4] (72 h) is listed as −59.521%.
For `C/C(=C\c1cc(F)cc(N2CCOCC2)c1)[C@H]1OC(=O)C[C@H](O)CC[C@H](C)[C@@H](OC(=O)NCCN(C)C)/C=C/[C@@H]1C` [Compound 242, [(2S,3S,4E,6R,7S,10R)-2-[(E)-1-(3-fluoro-5-morpholin-4-ylphenyl)prop-1-en-2-yl]-10-hydroxy-3,7-dimethyl-12-oxo-1-oxacyclododec-4-en-6-yl] N-[2-(dimethylamino)ethyl]carbamate], the IC50 in experiment [1] (setting [5]) was found to be 7150 nM; in experiment [1] (setting [6]), 62.1 nM; in experiment [2], 15.3 nM. For the same compound, the “Ratio Ad2.1/2.2” value in experiment [1] is on record as 115.051. Also, the “CTGlo-ATS Mean MinResponse % 72 h PANC0504.1” value in experiment [3] (72 h) is −92.786%. For the same compound, the GI50 in experiment [3] (setting [7]) came out at 68.9 nM; in experiment [4] (setting [8]), 180 nM. The “CTGlo-ATS Mean MinResponse % 72 h NCIH1568.1” value in experiment [4] (72 h) was −65.744%.
Regarding `C/C(=C\c1cc(F)cc(N2CCOCC2)c1)[C@H]1OC(=O)C[C@H](O)CC[C@H](C)[C@@H](OC(=O)N2CC[C@H](N(C)C)C2)/C=C/[C@@H]1C` [Compound 244, [(2S,3S,4E,6R,7S,10R)-2-[(E)-1-(3-fluoro-5-morpholin-4-ylphenyl)prop-1-en-2-yl]-10-hydroxy-3,7-dimethyl-12-oxo-1-oxacyclododec-4-en-6-yl] (3S)-3-(dimethylamino)pyrrolidine-1-carboxylate], the results for the IC50 in experiment [1] (setting [5]), in experiment [1] (setting [6]) and in experiment [2] were 3580 nM, 38.5 nM and 3.38 nM, respectively. In addition, the “Ratio Ad2.1/2.2” value in experiment [1] is reported as 93.018. Besides, the “CTGlo-ATS Mean MinResponse % 72 h PANC0504.1” value in experiment [3] (72 h) is listed as −95.630%. The GI50 in experiment [3] (setting [7]) was found to be 27.6 nM; in experiment [4] (setting [8]), 20.2 nM. Also, in experiment [4] (72 h), the “CTGlo-ATS Mean MinResponse % 72 h NCIH1568.1” value was −65.165%.
For `C/C(=C\c1cc(F)cc(N2CCOCC2)c1)[C@H]1OC(=O)C[C@H](O)CC[C@H](C)[C@@H](OC(=O)N(C)CCC#N)/C=C/[C@@H]1C` [Compound 245, [(2S,3S,4E,6R,7S,10R)-2-[(E)-1-(3-fluoro-5-morpholin-4-ylphenyl)prop-1-en-2-yl]-10-hydroxy-3,7-dimethyl-12-oxo-1-oxacyclododec-4-en-6-yl] N-(2-cyanoethyl)-N-methylcarbamate], the IC50 in experiment [1] (setting [5]) came to 8880 nM; in experiment [1] (setting [6]), 64.8 nM; in experiment [2] it was 17.4 nM. Further, the “Ratio Ad2.1/2.2” value in experiment [1] is listed as 136.897. Besides, the “CTGlo-ATS Mean MinResponse % 72 h PANC0504.1” value in experiment [3] (72 h) was −95.548%. Also, the results for the GI50 in experiment [3] (setting [9]) and in experiment [4] (setting [10]) were 113 nM and 62.3 nM, respectively. Besides, the “CTGlo-ATS Mean MinResponse % 72 h NCIH1568.1” value in experiment [4] (72 h) was −46.475%.
Consider `C/C(=C\c1cc(F)cc(N2CCOCC2)c1)[C@H]1OC(=O)C[C@H](O)CC[C@H](C)[C@@H](OC(=O)N2CCN(C)C(C)(C)C2)/C=C/[C@@H]1C` [Compound 246, [(2S,3S,4E,6R,7S,10R)-2-[(E)-1-(3-fluoro-5-morpholin-4-ylphenyl)prop-1-en-2-yl]-10-hydroxy-3,7-dimethyl-12-oxo-1-oxacyclododec-4-en-6-yl] 3,3,4-trimethylpiperazine-1-carboxylate], for which the IC50 in experiment [1] (setting [5]) was 279 nM; in experiment [1] (setting [6]) it was 36.1 nM; in experiment [2], 5.8 nM. Moreover, the “Ratio Ad2.1/2.2” value in experiment [1] is listed as 7.730. In addition, the “CTGlo-ATS Mean MinResponse % 72 h PANC0504.1” value in experiment [3] (72 h) is listed as −95.467%. Also, the GI50 worked out at 16.5 nM in experiment [3] (setting [7]) and 12.1 nM in experiment [4] (setting [8]). In experiment [4] (72 h), the “CTGlo-ATS Mean MinResponse % 72 h NCIH1568.1” value is recorded as −68.331%.
`C/C(=C\c1cc(F)cc(N2CCOCC2)c1)[C@H]1OC(=O)C[C@H](O)CC[C@H](C)[C@@H](OC(=O)N2CC[C@@H](F)C2)/C=C/[C@@H]1C` [Compound 247, [(2S,3S,4E,6R,7S,10R)-2-[(E)-1-(3-fluoro-5-morpholin-4-ylphenyl)prop-1-en-2-yl]-10-hydroxy-3,7-dimethyl-12-oxo-1-oxacyclododec-4-en-6-yl] (3R)-3-fluoropyrrolidine-1-carboxylate]: the IC50 in experiment [1] (setting [5]) is 50.8 nM; in experiment [1] (setting [6]), 34.6 nM; in experiment [2], 14.4 nM. Besides, in experiment [1], the “Ratio Ad2.1/2.2” value stood at 1.467. For the same compound, the “CTGlo-ATS Mean MinResponse % 72 h PANC0504.1” value in experiment [3] (72 h) is −77.509%. Besides, the figures for the GI50 in experiment [3] (setting [7]) and in experiment [4] (setting [8]) were 40.5 nM and 31.4 nM, respectively. In addition, the “CTGlo-ATS Mean MinResponse % 72 h NCIH1568.1” value in experiment [4] (72 h) is listed as −67.545%.
